From PubChem BioAssay AID651579 (Sanford-Burnham Center for Chemical Genomics, 2012) come the findings set out here.

The test system of this experiment is C. elegans hsp-16.2 reporter, heat-shock counterscreen. In words: inhibitors of heat-induced hsp-16.2 expression – whole organism, C. elegans, counter-screen for SKN-1 inhibitor project, dose response (AID 651579). For orientation: The purpose of a counterscreen is to sort out artefacts and off-target activity.

Calls of active or inactive are those of the source. The rule behind the calls is not given here. Some results are limits rather than exact numbers.

Usually IC50 stands for the point on the concentration scale where inhibition reaches its midpoint. With `CCCn1nc2cc(C(=O)NCc3ccc(OC(F)(F)F)cc3)ccc2c1OCC`, the IC50 is > 64 µM (inactive).

`Clc1ccc(-c2nnc(-c3ccccc3)o2)c(Cl)c1`: the IC50 is > 64 µM (inactive).

For the compound `Fc1ccc(COc2ccc(-c3nnco3)cc2)cc1`, the IC50 is > 64 µM (inactive).
